In ChEMBL document CHEMBL5465560, “Selectivity Literature for EUbOPEN Chemogenomic Library” (2024):
Blank lines part the entries; values can stand above or below the compound they belong to.

How the values were obtained:
[1] = biological target: Serine/threonine-protein kinase SIK3 (Homo sapiens) (UniProt Q9Y2K2); assay: Selectivity interaction (KinomeScan (DiscoverX)) EUB0000655a SIK3; conditions: at 10 µM
[2] = biological target: T1, Serine/threonine-protein kinase DCLK1 (Homo sapiens) (UniProt O15075); conditions: at 10 µM
T1 sequence (whole entry): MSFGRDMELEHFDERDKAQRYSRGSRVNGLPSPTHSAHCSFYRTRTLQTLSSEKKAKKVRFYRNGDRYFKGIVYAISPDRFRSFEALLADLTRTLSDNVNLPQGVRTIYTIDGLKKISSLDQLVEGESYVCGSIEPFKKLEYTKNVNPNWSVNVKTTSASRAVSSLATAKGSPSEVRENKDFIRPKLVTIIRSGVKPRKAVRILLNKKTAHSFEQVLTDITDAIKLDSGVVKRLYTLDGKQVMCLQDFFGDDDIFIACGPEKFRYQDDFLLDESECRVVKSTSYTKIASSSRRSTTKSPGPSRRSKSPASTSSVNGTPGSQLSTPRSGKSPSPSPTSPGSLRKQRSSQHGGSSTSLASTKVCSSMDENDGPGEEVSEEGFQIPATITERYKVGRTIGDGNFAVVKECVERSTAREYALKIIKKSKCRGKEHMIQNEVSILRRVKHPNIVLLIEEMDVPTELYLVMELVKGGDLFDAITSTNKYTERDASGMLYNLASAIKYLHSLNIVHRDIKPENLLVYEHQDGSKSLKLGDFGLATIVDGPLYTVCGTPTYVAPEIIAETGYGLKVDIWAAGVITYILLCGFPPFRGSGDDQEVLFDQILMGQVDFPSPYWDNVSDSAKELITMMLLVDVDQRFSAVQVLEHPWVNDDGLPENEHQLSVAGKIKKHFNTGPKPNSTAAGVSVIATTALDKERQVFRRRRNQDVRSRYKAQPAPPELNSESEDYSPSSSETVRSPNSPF

[3] = biological target: T2, Serine/threonine-protein kinase ULK1 (Homo sapiens) (UniProt O75385); assay: Selectivity interaction (ActivX KiNativ screen (kinase selectivity in THP-1 cell lysates)) EUB0000639a ULK1; assay type: subcellular; conditions: lysate, at 0.04 µM
T2 sequence (whole entry): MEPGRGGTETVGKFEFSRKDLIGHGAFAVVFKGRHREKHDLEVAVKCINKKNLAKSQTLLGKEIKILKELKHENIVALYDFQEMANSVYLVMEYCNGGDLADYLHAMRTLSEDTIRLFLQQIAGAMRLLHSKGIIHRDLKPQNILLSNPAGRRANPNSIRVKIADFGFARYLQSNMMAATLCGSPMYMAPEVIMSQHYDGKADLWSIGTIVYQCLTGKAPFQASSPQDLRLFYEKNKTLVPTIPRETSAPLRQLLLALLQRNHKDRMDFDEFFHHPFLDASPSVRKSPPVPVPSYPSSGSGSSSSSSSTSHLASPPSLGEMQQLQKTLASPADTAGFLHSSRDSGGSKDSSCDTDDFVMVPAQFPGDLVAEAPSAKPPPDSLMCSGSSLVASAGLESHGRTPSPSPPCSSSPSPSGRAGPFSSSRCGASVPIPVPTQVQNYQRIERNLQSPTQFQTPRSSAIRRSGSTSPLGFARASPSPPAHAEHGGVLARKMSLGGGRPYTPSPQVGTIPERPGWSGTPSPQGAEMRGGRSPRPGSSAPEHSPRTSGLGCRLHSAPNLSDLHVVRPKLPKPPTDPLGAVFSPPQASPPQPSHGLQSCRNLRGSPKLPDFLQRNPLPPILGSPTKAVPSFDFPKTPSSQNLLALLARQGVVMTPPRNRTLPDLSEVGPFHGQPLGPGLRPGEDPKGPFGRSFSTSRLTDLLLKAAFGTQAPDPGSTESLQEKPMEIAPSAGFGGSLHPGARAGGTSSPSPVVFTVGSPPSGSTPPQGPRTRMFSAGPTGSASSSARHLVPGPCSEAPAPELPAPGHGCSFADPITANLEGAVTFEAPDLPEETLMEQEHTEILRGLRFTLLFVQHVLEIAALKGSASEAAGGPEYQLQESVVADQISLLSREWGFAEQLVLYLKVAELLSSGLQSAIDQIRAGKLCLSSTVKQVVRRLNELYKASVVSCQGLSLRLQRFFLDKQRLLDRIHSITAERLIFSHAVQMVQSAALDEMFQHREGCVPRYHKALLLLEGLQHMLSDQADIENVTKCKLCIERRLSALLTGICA

[4] = biological target: Serine/threonine-protein kinase Nek7 (Homo sapiens) (UniProt Q8TDX7); assay: Selectivity interaction (ActivX KiNativ screen (kinase selectivity in THP-1 cell lysates)) EUB0000639a NEK7; assay type: subcellular; conditions: lysate
Sequence of Serine/threonine-protein kinase Nek7 (Homo sapiens) (Q8TDX7 whole entry, looked up): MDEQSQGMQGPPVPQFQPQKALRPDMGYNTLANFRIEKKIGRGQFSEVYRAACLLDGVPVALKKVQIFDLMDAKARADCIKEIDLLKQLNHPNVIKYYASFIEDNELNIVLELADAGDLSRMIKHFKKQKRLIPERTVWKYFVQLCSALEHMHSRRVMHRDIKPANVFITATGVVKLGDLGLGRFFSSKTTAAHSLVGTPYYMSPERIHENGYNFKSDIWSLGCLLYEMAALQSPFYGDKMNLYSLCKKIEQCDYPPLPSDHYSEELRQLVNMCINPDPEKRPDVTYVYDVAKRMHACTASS

[5] = biological target: Non-receptor tyrosine-protein kinase TYK2 (Homo sapiens, UniProt P29597); assay: Selectivity interaction (ActivX KiNativ screen (kinase selectivity in THP-1 cell lysates)) EUB0000639a TYK2; assay type: subcellular; conditions: lysate, at 0.2 µM
Sequence of Non-receptor tyrosine-protein kinase TYK2 (P29597 whole entry): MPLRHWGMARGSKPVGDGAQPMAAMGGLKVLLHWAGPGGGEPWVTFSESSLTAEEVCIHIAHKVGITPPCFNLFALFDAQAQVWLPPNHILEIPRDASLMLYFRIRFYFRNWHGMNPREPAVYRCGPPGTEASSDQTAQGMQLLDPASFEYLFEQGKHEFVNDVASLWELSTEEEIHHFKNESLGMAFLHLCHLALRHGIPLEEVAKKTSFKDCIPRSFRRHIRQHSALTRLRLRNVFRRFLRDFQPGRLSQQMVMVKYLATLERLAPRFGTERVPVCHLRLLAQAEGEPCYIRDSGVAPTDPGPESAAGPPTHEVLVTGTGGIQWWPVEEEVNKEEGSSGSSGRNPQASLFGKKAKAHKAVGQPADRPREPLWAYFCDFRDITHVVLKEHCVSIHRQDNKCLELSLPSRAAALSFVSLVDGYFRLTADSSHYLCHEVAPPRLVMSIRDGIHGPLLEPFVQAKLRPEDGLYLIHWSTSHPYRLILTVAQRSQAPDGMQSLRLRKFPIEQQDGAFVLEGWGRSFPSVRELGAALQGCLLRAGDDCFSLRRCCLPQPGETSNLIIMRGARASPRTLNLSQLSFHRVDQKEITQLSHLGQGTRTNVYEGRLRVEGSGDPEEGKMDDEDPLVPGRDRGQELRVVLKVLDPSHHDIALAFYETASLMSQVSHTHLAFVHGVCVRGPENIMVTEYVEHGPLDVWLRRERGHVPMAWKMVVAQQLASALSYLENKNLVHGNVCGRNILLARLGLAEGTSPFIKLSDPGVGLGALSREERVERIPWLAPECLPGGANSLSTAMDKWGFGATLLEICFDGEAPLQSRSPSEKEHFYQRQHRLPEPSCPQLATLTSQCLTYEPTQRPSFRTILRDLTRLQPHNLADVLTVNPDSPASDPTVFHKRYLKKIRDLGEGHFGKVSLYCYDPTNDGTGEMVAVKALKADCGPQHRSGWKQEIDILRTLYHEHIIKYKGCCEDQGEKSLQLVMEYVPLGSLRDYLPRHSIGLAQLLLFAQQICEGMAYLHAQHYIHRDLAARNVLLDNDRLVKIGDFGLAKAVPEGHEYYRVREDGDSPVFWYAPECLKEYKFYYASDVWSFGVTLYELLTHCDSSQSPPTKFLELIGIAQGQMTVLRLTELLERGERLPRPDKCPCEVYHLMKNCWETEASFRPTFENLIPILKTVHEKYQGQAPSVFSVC

[6] = biological target: Serine/threonine-protein kinase MRCK beta (Homo sapiens) (UniProt Q9Y5S2); assay: Selectivity interaction (KinomeScan (DiscoverX)) EUB0001049a CDC42BPB; conditions: at 1 µM
[7] = biological target: SWI/SNF-related matrix-associated actin-dependent regulator of chromatin subfamily A member 2 (Homo sapiens, UniProt P51531); assay: Selectivity interaction (Human bromodomain panel (DSF assay)) EUB0000233b SMARCA2
Sequence of SWI/SNF-related matrix-associated actin-dependent regulator of chromatin subfamily A member 2 (P51531 whole entry): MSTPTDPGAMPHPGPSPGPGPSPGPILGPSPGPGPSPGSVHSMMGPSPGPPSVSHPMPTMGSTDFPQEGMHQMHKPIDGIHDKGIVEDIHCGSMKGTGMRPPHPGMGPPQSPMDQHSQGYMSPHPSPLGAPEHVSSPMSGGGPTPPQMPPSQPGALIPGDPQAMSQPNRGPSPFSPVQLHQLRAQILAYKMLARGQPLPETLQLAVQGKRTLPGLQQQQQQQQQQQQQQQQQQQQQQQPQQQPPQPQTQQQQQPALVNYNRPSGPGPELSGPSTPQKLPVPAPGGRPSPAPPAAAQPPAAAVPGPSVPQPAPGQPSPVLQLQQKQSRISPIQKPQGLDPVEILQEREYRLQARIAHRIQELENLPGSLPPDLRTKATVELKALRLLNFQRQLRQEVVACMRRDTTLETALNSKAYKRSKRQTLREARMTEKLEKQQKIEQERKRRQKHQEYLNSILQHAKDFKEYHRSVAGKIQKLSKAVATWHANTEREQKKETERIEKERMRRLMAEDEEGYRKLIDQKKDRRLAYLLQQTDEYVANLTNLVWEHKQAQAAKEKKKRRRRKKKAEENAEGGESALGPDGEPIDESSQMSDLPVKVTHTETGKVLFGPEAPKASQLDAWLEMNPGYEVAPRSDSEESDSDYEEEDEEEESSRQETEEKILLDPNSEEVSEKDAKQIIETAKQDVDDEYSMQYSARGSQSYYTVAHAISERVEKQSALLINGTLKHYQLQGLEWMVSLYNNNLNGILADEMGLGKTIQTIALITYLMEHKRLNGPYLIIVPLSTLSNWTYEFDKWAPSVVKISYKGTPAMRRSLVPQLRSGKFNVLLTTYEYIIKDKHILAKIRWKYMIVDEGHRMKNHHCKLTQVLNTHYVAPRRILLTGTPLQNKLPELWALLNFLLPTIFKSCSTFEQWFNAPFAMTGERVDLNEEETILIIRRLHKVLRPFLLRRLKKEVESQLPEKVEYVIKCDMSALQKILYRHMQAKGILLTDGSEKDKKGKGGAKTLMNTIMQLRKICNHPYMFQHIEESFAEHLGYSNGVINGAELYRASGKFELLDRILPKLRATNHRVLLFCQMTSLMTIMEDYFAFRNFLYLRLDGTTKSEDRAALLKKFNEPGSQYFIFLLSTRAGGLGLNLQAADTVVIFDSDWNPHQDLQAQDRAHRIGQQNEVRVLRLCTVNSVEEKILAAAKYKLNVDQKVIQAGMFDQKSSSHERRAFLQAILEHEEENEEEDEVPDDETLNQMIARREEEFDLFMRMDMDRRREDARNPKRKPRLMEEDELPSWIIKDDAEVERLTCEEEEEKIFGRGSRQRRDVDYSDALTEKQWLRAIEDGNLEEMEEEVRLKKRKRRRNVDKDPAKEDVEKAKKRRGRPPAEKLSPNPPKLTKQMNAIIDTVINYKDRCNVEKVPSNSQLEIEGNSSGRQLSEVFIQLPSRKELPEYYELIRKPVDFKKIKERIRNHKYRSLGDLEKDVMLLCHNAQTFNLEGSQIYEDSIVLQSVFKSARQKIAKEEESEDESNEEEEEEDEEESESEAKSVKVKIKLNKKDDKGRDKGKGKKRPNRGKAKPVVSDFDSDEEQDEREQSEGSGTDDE

Sequence of Serine/threonine-protein kinase SIK3 (Homo sapiens) (Q9Y2K2 whole entry, looked up): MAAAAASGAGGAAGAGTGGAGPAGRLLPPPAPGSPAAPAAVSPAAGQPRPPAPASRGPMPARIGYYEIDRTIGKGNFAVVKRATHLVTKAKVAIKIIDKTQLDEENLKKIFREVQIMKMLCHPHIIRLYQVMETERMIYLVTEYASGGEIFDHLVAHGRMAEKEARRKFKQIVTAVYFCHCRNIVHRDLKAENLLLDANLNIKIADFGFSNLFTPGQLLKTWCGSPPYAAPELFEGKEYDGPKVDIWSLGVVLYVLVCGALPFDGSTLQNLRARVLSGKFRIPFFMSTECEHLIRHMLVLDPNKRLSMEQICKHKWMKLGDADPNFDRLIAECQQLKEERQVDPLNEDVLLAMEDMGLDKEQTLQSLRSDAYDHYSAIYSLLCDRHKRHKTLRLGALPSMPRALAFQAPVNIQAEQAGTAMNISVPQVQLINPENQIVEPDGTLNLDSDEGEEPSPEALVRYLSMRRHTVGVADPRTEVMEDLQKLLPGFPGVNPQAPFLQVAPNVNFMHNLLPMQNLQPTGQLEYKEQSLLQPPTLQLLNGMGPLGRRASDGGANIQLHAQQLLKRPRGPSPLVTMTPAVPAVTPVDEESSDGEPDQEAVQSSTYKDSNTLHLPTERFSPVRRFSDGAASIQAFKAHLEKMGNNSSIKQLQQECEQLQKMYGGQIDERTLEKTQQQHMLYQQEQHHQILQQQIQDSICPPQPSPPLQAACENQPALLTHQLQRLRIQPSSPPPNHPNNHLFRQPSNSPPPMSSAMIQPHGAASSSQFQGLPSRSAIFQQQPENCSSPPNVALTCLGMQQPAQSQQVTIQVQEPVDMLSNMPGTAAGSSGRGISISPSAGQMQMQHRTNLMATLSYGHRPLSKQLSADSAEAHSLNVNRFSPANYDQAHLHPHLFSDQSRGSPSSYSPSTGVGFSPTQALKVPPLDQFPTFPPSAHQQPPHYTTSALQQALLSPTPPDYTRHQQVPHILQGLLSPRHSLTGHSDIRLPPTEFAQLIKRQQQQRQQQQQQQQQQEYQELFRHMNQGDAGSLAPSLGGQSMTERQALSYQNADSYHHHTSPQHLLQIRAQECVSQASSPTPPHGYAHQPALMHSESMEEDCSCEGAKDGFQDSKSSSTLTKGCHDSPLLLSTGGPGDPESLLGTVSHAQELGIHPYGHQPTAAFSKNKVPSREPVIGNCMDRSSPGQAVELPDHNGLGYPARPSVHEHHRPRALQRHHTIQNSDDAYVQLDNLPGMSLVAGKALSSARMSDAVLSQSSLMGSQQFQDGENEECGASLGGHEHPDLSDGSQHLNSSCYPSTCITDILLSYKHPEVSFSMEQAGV

SMILES: CN(C)CCOc1ccc(-c2nc(-c3ccncc3)c(-c3ccc4c(c3)CC/C4=N\O)[nH]2)cc1
% of control [1]: 100%

SMILES: Cc1cc([C@@H](C)Nc2ccccc2C(=O)O)c2nc(N3CCOCC3)cc(=O)n2c1 [AZD-6482]
% of control [2]: 78%

% of inhibition [3]: -12.7%
% of inhibition ([4]; at 0.01 µM): -4%
% of inhibition ([4]; at 0.04 µM): -1.1%
% of inhibition ([4]; at 0.2 µM): -1.6%
% of inhibition ([4]; at 1 µM): 10.8%
% of inhibition ([4]; at 5 µM): -20%
% of inhibition [5]: 14%
SMILES: CC[C@@H]1[C@H](F)C(=O)N[C@@H]1COc1nccc2cc(C(N)=O)c(OC)cc12 [ZIMLOVISERTIB]

SMILES: COc1cc(Nc2nc(C)cc(-c3cnn4nc(OC)ccc34)n2)cc(C(F)(F)F)c1
% of control [6]: 85%

dTM [7]: < 2 K
SMILES: CN(C)CCCOc1ccc(-c2cc(NCCCn3cccn3)nc(S(C)(=O)=O)n2)cc1
